Results taken from article PMC11899342, “Novel Triazeneindole Antibiotics: Synthesis and Hit-to-Lead Optimization” (International Journal of Molecular Sciences, 2025).

Key:
[1] = target: T1, hERG K+-ion channel (Homo sapiens, UniProt Q12809); assay: Predictor hERG fluorescence polarization assay; type: binding; settings: tracer displacement, up to 50 µM
T1 construct: purchased Invitrogen
Protocol: Determination of the binding of the BX-SI043 compound to the hERG K^+-ion channel was carried out using the Predictor hERG Fluorescence Polarization Assay Kit (Invitrogen, USA) at concentrations of 0.016, 0.08, 0.4, 2, 10, and 50 µM, according to the manufacturer’s instructions. This method is based on the measurement of the changing fluorescence polarization caused by the displacement of the high-affinity fluorescent tracer by the tested compound. A selective inhibitor of the hERG channels E-4031 was used as a control compound. Briefly, a 2X solution of membranes, containing hERG channels, was prepared and placed in 384-well plate. The tested substance, the control substance, the buffer, and the tracer were placed in the corresponding wells and incubated in the dark at room temperature for 2 h. Fluorescence polarization measurement was conducted on an Infinite M1000 PRO plate reader with the following parameters: 10 flashes per well; an excitation center wavelength of 530 nm, with a bandwidth of 5 nm; an emission center wavelength of 585 nm, with a bandwidth of […]. The calculation of the IC50 half-maximal inhibition concentration values was performed in GraphPad Prism 6.0 (GraphPad Software Inc.), based on the equations of the experimental curves.

[2] = Stability in artificial intestinal juice; type: in vitro ADME
Protocol: During ADME studies, the concentration of the compounds was analyzed using ultra-performance liquid chromatography (UPLC) coupled with tandem mass spectrometry (MS/MS) in the multiple reaction monitoring (MRM) mode. A quantitative analysis was performed using the internal standard (IS) calibration method, with tolbutamide as the IS.
The analyses were carried out on a system composed of an Agilent 1290 Infinity UPLC system (Agilent Technologies, USA) connected by ESI interface to a tandem quadrupole mass spectrometer QTRAP 6500 (AB Sciex Corp, Framingham, MA, USA). The separation was conducted on an YMC Triart C18 50 × 2 mm, 1.9 μm column, which was kept at 35 °C. The samples were cooled to 8 °C in an autosampler, and aliquots of 1 µL were delivered onto the column. Elution was performed using gradients of A (0.1% formic acid in water) and B (0.1% formic acid in acetonitrile), at the flow rate 0.35 mL/min. […] The declustering potential was 31 V for BX and 93 V for IS, resepectively; the collision energy was attuned to 17 eV; the collision cell exit potential was 10 V for BX and 8 V for IS MRM, respectively; the analyses were recorded for 305 → 234 (BX) and 271 → 172 (tolbutamide). […]

[3] = Stability in rat plasma; type: in vitro ADME; settings: 37 °C, 1 μM
Protocol: For the experiment, human and rat plasma (SD) was thawed at room temperature and centrifuged for 5 min at 1500× g. Eucatropine (Sigma-Aldrich, USA), which is unstable in human and rat plasma, was used as a control compound.
For stability evaluation, 3 μL of 100X solutions of the tested or control compound (0.1 mM) was added to 297 μL of the corresponding plasma (prewarmed to 37 °C) to a final concentration of 1 μM. The plasma samples were incubated with the test and control compounds in the 0.65 mL microtubes at 37 °C and under 300 rpm rotation. After 15, 30, 60, and 240 min, 30 μL aliquots were taken into 1.1 mL microtubes with 180 μL of chilled acetonitrile with an internal standard of 200 ng/mL tolbutamide (Fluka). The tubes were stirred and kept at 4 °C for 15 min, then centrifuged at 1500× g for 10 min. A total of 200 μL of the supernatants was transferred into microtubes and stored at −70 °C until UPLC–MS/MS analysis.

[4] = Stability in human liver microsomes; type: in vitro ADME
Protocol: The liver metabolism of the substance was studied in the microsomal fractions of human and rat livers (XenoTech HMMCPL, RTMCPL, Kansas City, KS, USA) in the presence of the cofactor of the oxidative enzymes NADPH (AppliChem, Darmstadt, Germany).
The plate was incubated in a thermal shaker for 10 min at 400 rpm and 37 °C; then, 2.4 µL of 100× stocks of the tested substance was added into each well. A total of 30 µL of 8× cofactor solution was added to each experimental well (two replicates), 30 µL of deionized water was added to one control well, and all wells were mixed three times using a multichannel pipette with a volume of 100 µL. After mixing, the plate was placed in a thermal shaker at 400 rpm and 37 °C. The reactions were terminated at the following time points—0, 5, 10, 15, 20, and 30 min—by transferring 30 µL of the reaction mixture from the corresponding well to 1.1 mL microtubes and adding 180 µL of acetonitrile with internal standard 200 ng/mL tolbutamide (Fluka, Switzerland). To evaluate the stability of the substance in the microsomes without the cofactor, two aliquots were taken from the control well, and the reactions were terminated at 0 and 30 min time points. […] Then, the samples were centrifuged for 10 min at 1500× g, and 150 μL of the supernatant was taken for UPLC–MS/MS analysis.

T1 sequence (Q12809 whole entry): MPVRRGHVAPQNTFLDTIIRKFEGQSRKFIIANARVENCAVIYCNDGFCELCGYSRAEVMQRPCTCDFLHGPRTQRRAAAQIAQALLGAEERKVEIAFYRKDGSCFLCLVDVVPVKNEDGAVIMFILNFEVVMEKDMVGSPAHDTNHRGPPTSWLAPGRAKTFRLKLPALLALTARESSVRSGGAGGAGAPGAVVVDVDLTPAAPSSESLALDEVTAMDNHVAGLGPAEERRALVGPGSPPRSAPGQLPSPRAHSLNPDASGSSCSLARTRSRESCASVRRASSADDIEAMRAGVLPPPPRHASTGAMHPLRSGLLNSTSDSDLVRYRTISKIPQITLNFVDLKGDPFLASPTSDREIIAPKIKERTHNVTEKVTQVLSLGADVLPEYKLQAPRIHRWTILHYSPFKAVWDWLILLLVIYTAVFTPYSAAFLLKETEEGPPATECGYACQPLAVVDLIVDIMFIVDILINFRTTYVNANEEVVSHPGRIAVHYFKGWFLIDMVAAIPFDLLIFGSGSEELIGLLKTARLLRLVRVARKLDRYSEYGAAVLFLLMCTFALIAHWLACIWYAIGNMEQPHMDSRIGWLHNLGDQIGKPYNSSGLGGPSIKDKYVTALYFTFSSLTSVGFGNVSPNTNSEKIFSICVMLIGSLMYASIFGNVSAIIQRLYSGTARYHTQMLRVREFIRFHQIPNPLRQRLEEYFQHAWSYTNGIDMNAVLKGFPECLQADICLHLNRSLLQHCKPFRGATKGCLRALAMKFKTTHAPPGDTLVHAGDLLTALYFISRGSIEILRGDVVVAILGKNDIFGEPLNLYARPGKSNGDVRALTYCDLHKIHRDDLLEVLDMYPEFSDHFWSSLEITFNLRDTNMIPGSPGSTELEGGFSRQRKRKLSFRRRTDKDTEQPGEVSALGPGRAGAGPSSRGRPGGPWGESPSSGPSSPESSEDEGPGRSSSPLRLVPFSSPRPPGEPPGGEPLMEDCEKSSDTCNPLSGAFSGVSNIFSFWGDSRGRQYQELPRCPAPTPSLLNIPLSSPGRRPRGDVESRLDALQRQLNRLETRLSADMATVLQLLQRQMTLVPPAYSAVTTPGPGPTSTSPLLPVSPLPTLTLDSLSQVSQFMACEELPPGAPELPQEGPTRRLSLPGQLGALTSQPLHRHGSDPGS

CCOC(=O)c1[nH]c2cc(F)ccc2c1/N=N/N1CCCC1 [BX-SI043, Ethyl (E)-6-fluoro-3-(pyrrolidin-1-yldiazenyl)-1H-indole-2-carboxylate]
IC50 [1]: > 50 µM | half-life at 1 µM ([2]; artificial intestinal juice with pancreatin, pH 6.8, pancreatin, 37 °C, 1 μM, read-out: t1/2 in artificial intestinal juice (converted)): 60 min | metabolism in intestinal juice after 4 h of incubation ([2]; pH 6.8, 37 °C, 4 h): fully metabolized | remaining in rat plasma after 15 min [3]: 1.7% | Remaining after 30 min ([4]; NADPH): 0.00% | half-life ([4]; pH 7.4, NADPH): 2.73 min | microsomal CLint ([4]; pH 7.4, NADPH): 1020 µL/min/mg
